Source: ChEMBL document CHEMBL1201862, “PubChem BioAssay data set” (2004)
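Cultured in 96-well plates, cells were exposed to test compound for 48 hours across five concentrations. GI50 = concentration required for 50% inhibition of growth.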 The source made the active and inactive calls. No stated cut-off is given here; in the data, active = GI50 up to about 1.1 µM and inactive = higher.

Experiments:
Assay in all cases: NCI tumour cell line growth inhibition, 48 h
DMS-273 = system: DMS-273
SK-MEL-5 = system: SK-MEL-5
CAKI-1 = system: CAKI-1
ACHN = system: ACHN
SF-295 = system: SF-295
OVCAR-3 = system: OVCAR-3
SW-620 = system: SW-620
A498 = system: A498
HT-29 = system: HT-29
OVCAR-5 = system: OVCAR-5
UO-31 = system: UO-31
SNB-75 = system: SNB-75
HCT-15 = system: HCT-15
786-0 = system: 786-0
MDA-MB-435 = system: MDA-MB-435
NCI/ADR-RES = system: NCI/ADR-RES
PC-3 = system: PC-3
MCF7 = system: MCF7
DU-145 = system: DU-145
T47D = system: T47D

Row | Compound | GI50 (DMS-273) | GI50 (SK-MEL-5) | GI50 (CAKI-1) | GI50 (ACHN) | GI50 (SF-295) | GI50 (OVCAR-3) | GI50 (SW-620) | GI50 (A498) | GI50 (HT-29) | GI50 (OVCAR-5) | GI50 (UO-31) | GI50 (SNB-75) | GI50 (HCT-15) | GI50 (786-0) | GI50 (MDA-MB-435) | GI50 (NCI/ADR-RES) | GI50 (PC-3) | GI50 (MCF7) | GI50 (DU-145) | GI50 (T47D)
1 | Nc1nc2c(nnn2C2C=C(CO)C(O)C2O)c(=O)[nH]1 (centres undefined) | > 100 µM (inactive) | > 100 µM (inactive) | 57.7 µM (inactive) | > 100 µM (inactive) | > 100 µM (inactive) | > 100 µM (inactive) | 66.4 µM (inactive) | > 100 µM (inactive) | > 100 µM (inactive) | > 100 µM (inactive) | > 100 µM (inactive) | > 100 µM (inactive) | > 100 µM | 68.5 µM (inactive) |  |  |  |  |  | 
2 | O=C(O)CCSC(=S)Nc1ccc([N+](=O)[O-])cc1 | 75.9 µM (inactive) | 20.3 µM (inactive) | > 100 µM (inactive) | 33.8 µM (inactive) | 40.5 µM (inactive) | 45 µM (inactive) | > 70.1 µM (inactive) | > 70.3 µM (inactive) | > 94 µM (inactive) | > 100 µM (inactive) | > 63.1 µM (inactive) | 33.4 µM (inactive) | > 56.6 µM | > 100 µM (inactive) | 24.4 µM (inactive) | 40.8 µM (inactive) | 48.2 µM (inactive) | 40.1 µM (inactive) | 43.6 µM (inactive) | 31.3 µM (inactive)
